Data: US20260294940A1, “PHOSPHORUS-CONTAINING COMPOUNDS FOR TREATING INFLAMMATORY BOWEL DIESEASE” (VivaVision Biotech, Inc., priority 2022, published 2026)

What was measured:
Format in all cases: in vivo, Balb/c mice
[1] = system: oxazolone-induced colitis mice; test: Oxazolone-induced acute colitis in mice for ulcerative colitis (bodyweight, DAI, colon weight, length and density); conditions: PO BID 5 days, compound A30 1, 5 or 25 mg/kg, tofacitinib 10 mg/kg; for colon weight / colon length / colon density: Day 9 after sensitization; for colon weight: FIG. 3; for colon length: FIG. 4; for colon density: FIG. 5; for bodyweight change: FIG. 1; for DAI score: FIG. 2
Experimental: (§1) Compound A30 was evaluated in an oxazolone-induced colitis murine model, along with tofacitinib. Boirivant et al., J. Exp. Med. 1998, 188, 1929-39. Balb/c mice were randomly divided into 6 groups according to Table 1:4 treatment groups (Treatment Groups), 1 vehicle group (Vehicle Group), and 1 sham group (Sham Group). The mice in Treatment and Vehicle Groups were sensitized with 200 μL of 2% oxazolone in acetone and olive oil (1:4), followed by injection of 100 μL of 1.5% oxazolone into the rectum of each mouse on Day 5 after sensitization. The mice in Sham Group were sensitized with 200 μL of a mixture of acetone and olive oil (1:4) without oxazolone, followed by injection of 100 μL of 50% ethanol/water into the rectum of each mouse on Day 5 after sensitization. Before the injection into the rectum, each mouse was anesthetized intraperitoneally with tribromoethanol (0.3 mL, 1.25%). From Days 4 to 8 after sensitization, the mice in Sham and Vehicle Groups were each given 0.5% CMC-Na by gavage, and the mice in Treatment Groups were each given by gavage tofacitinib or compound A30 in 0.5% CMC-Na, respectively, according to the dosing schedule shown in Table 1.
The bodyweight of each mouse was measured daily. From Day 4 after sensitization, the fecal property and occult blood as determined with a fecal occult blood test (FOBT) of each mouse were measured daily to calculate a disease activity index (DAI) according to Table 2.
(§2) On Day 9 after sensitization, each mouse was euthanized and blood was collected from the heart. A serum was prepared and frozen for the determination of inflammatory factors.
(§3) The colon of each mouse was collected and photographed, and the colon length was measured and weighed after the removal of the content of the colon. A part of each colon collected was fixed using the Swiss roll technique in neutral paraformaldehyde for pathological scoring (Table 3) as described in Bialkowska et al., J. Vis. Exp. 2016, 113, e54161. The rest of the colon mucosa of each mouse was scraped and frozen for the determination of inflammatory factors.
Due to the inflammation, it is expected that the colon of an oxazolone-induced colitis mouse has an […], and increased density.

TNF-α = TNF-α level in oxazolone-induced colitis mice (cytometric bead array); conditions: Day 9, PO BID 5 days, compound A30 1, 5 or 25 mg/kg, tofacitinib 10 mg/kg; for TNF-α level (intestinal mucosa): FIG. 7; for TNF-α level (serum): FIG. 9
Experimental: as §1, §2, §3
(§4) The IFN-γ and TNFα levels were analyzed using a BD™ cytometric bead array (CBA) kit.

IFN-γ = IFN-γ level in oxazolone-induced colitis mice (cytometric bead array); conditions: Day 9, PO BID 5 days, compound A30 1, 5 or 25 mg/kg, tofacitinib 10 mg/kg; for IFN-γ level (intestinal mucosa): FIG. 8; for IFN-γ level (serum): FIG. 10
Experimental: as §1, §2, §3, §4

## C[C@@H]1CCN(C(=O)CC#N)C[C@@H]1N(C)c1ncnc2[nH]ccc12 [tofacitinib]
[1]
  colon weight: able to reverse the disease effects
  colon length: able to reverse the disease effects
  colon density: able to reverse the disease effects
  bodyweight change: slowed the bodyweight loss
  DAI score: improved the DAI score
TNF-α
  TNF-α level (intestinal mucosa): lowered
  TNF-α level (serum): lowered
IFN-γ
  IFN-γ level (intestinal mucosa): lowered
  IFN-γ level (serum): lowered

## C[P@](=O)(CCc1cc(Cl)c(C(=O)N[C@@H](Cc2cccc(S(C)(=O)=O)c2)C(=O)O)c(Cl)c1)c1cccc(O)c1 [compound A30, (S)-2-(2,6-dichloro-4-(2-((S)-(3-hydroxyphenyl)(methyl)phosphoryl)ethyl)benz-amido)-3-(3-(methylsulfonyl)phenyl)propanoic acid]
[1]
  colon weight: able to reverse the disease effects
  colon length: able to reverse the disease effects
  colon density: able to reverse the disease effects
  bodyweight change: slowed the bodyweight loss
  DAI score: improved the DAI score
TNF-α
  TNF-α level (intestinal mucosa): lowered
  TNF-α level (serum): lowered
IFN-γ
  IFN-γ level (intestinal mucosa): lowered
  IFN-γ level (serum): lowered
